Assay results: patent US6750248B2, “Methods for preparing an estrogenic preparation and isolated estrogenic compounds from a plant and uses thereof” (National University of Singapore, priority 2001, dated 2004)
Entries after “also recorded” stand apart in the source; their conditions may differ. Where two headings read alike, the source gives them in different places.

Columns and labels:
[1] = mice, intra-peritoneal 32 mg/kg/day for 14 days; cited from earlier work
[2] = system: mouse heart allograft; settings: cited from earlier work
[3] = molecular target: T1, human estrogen receptor ER-beta (Homo sapiens, UniProt Q92731); assay: ER-beta MMTV-ERE-LUC luciferase reporter gene assay in transiently co-transfected Hela cells; type: cell-based; settings: for ER-alpha versus ER-beta selectivity (in words): compared with ER-alpha
T1 construct: expressed in transfected cells; host or cells: Hela cells, transient co-transfection with lipofectamine
Experimental: (§1) To assay estrogen receptor agonist activity, Hela cells were grown in 24-well microtiter plates and then transiently co-transfected with two plasmids using lipofectamine. The first plasmid comprised DNA encoding human estrogen receptor (either ER-alpha or ER-beta), and the second plasmid comprised an estrogen-driven reporter system comprising: a luciferase reporter gene (LUC) whose transcription is under the control of upstream regulatory elements comprising 4 copies of the vitelogenin estrogen response element (ERE) cloned into the mouse mammary tumor virus (MMTV) promoter (the full name for the reporter system being “MMTV-ERE-LUC”). Cells were exposed to herbal extracts in RPMI 1640 medium, supplemented with 10% charcoal-treated fetal calf serum, 2 mM L-glutamine, 0.1 mM non-essential amino acids and 1 mM sodium pyruvate for 42-48 hours at 37° C. in a 5% carbon dioxide incubator. […] Replicate wells exposed to the solvent in which herbal extracts were dissolved (i.e. ethanol or methanol) were used as negative controls. After the 42-48 hr incubation period, cells were rinsed with phosphate buffered saline(PBS), lysis buffer (Promega Corp) was added, and cell lysates collected for measurement of luciferase activity with a luminometer. […] All data points are in triplicate.

[4] = molecular target: T2, human estrogen receptor ER-alpha (Homo sapiens, UniProt P03372); assay: ER-alpha MMTV-ERE-LUC luciferase reporter gene assay in transiently co-transfected Hela cells; type: cell-based
T2 construct: expressed in transfected cells; host or cells: Hela cells, transient co-transfection with lipofectamine
T2 sequence (P03372 1-595): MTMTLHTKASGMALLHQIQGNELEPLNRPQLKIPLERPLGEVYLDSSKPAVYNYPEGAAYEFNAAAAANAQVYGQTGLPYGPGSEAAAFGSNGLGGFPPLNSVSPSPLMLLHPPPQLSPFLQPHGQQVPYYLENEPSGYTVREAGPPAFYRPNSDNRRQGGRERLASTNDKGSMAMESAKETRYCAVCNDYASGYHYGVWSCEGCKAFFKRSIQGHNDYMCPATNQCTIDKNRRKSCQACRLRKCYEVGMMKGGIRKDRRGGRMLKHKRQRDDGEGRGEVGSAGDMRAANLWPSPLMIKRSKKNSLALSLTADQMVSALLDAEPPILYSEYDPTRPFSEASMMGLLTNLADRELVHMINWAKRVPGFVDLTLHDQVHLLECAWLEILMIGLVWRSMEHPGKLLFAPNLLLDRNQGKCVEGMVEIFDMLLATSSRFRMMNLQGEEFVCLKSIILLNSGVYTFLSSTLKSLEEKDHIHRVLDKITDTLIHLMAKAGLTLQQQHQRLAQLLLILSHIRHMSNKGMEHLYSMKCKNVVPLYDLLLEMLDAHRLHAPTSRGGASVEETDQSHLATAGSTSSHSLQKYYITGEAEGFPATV
Experimental: as §1

[5] = system: human estrogen receptor (either ER-alpha or ER-beta); assay: Estrogen receptor bioassay as in Example 1, ER subtype not stated; type: cell-based; settings: under the conditions described herein
Experimental: as §1

[6] = system: estrogen receptors; settings: cited from earlier work

T1 sequence (Q92731 whole entry): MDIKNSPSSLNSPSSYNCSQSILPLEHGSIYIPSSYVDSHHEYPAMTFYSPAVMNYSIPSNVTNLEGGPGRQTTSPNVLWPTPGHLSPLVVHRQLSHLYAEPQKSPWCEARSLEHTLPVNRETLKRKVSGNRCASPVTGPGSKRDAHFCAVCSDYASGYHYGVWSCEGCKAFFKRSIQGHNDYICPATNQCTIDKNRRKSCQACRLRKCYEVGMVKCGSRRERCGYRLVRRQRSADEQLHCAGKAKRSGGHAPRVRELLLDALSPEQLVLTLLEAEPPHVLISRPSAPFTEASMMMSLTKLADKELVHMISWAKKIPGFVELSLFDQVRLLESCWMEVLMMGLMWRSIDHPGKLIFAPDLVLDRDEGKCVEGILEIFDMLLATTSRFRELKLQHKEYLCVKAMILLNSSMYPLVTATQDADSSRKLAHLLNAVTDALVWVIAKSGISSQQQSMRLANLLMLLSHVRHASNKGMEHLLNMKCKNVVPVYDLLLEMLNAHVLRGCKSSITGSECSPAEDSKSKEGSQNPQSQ

| SMILES | ER-beta agonist activity (in words) [3] | Estrogenic activity (fold increased over vehicle), ER-beta ([3]; dose 0.05 μg/ml) | Estrogenic activity (fold increased over vehicle), ER-beta ([3]; dose 0.5 μg/ml) | Estrogenic activity (fold increased over vehicle), ER-beta ([3]; dose 5 μg/ml) | ER-alpha agonist activity (in words) [4] | Estrogenic activity (fold increased over vehicle), ER-alpha ([4]; dose 0.05 μg/ml) | Estrogenic activity (fold increased over vehicle), ER-alpha ([4]; dose 0.5 μg/ml) | Estrogenic activity (fold increased over vehicle), ER-alpha ([4]; dose 5 μg/ml) | Relative potency of estrogenic activity compared to genistein [6] | further results |
| --- | --- | --- | --- | --- | --- | --- | --- | --- | --- | --- |
| COc1ccc(-c2oc3c(CC=C(C)C)c(O)cc(O)c3c(=O)c2O[C@@H]2O[C@@H](C)[C@H](O)[C@@H](O)[C@H]2O)cc1 [Baihuoside I] |  |  |  |  |  |  |  |  |  | Side effects [1]: no side effects; Mouse heart allograft survival [2]: effective at prolonging mouse heart allograft survival |
| CC(C)=CCc1cc(-c2cc(=O)c3c(O)cc(O)cc3o2)ccc1O [Compound I, yinyanghuo D] | can activate both ER-alpha and ER-beta | 2.598 fold | 18.763 fold | 13.289 fold | can activate both ER-alpha and ER-beta | 4.940 fold | 9.089 fold | 11.618 fold |  | ER-alpha versus ER-beta selectivity (in words) ([3]; listed as AF6): activate both ER-alpha and ER-beta equally; also recorded: estrogen receptor agonist activity on both ER-alpha and ER-beta; ER-beta agonist activity (in words) ([3]; listed as AF6): strong ER-alpha and ER-beta activity; ER-alpha agonist activity (in words) ([4]; listed as AF6): strong ER-alpha and ER-beta activity |
| CC(C)=CCc1cc(-c2cc(=O)c3c(O)cc(O)cc3o2)cc2c1OC(C(C)(C)O)C2O (stereo not drawn) [Compound III] | activated ER-beta strongly | 1.514 fold | 6.093 fold | 23.132 fold | very weak ER alpha activity | 1.031 fold | 2.357 fold | 2.694 fold |  | Concentration with ER-beta activity equivalent to estradiol at 1 nM [3]: 15 ng/mL; Factor by which ER-beta is activated more strongly than ER-alpha ([3]; at 5 μg/ml): about nine-fold; ER-alpha versus ER-beta selectivity (in words) [3]: activates ER-beta more strongly than it activates ER-alpha; also recorded: shows specificity for ER-beta; ER-alpha versus ER-beta selectivity (in words) ([3]; listed as AF1): stronger than that observed for ER-alpha estrogen receptors; ER-beta stimulatory activity compared with estradiol (in words) ([3]; dose-dependent): stronger than that observed for estradiol; ER-alpha activity as % of that of estradiol [4]: 26% |
| C=C(C)C(O)Cc1cc(-c2cc(=O)c3c(O)cc(O)cc3o2)cc(CC(O)C(=C)C)c1O (stereo not drawn) [Compound II] |  |  |  |  |  |  |  |  |  | Estrogenic activity (in words) [5]: no detectable estrogenic activity |
| O=c1cc(-c2ccc(O)c(O)c2)oc2cc(O)cc(O)c12 [Luteolin] |  |  |  |  |  |  |  |  | 58% |  |
| O=c1c(O)c(-c2ccc(O)c(O)c2)oc2cc(O)cc(O)c12 [quercetin] |  |  |  |  |  |  |  |  | 10% |  |
